Experimental data taken from PMC3169196 (Journal of medicinal chemistry, 2011).

Legend:
MDA-MB-231 cells = test: MTT assay, antiproliferative activity in MDA-MB-231; type: cell-based, human; conditions: for in vitro anticancer activity at single concentration: MDA-MB-231, 10μM of each analogue for three days
MCF10A cells = test: MTT assay with immortalized normal breast cells MCF10A; type: cell-based, human; conditions: for killing of normal MCF10A cells: compared with cancerous MCF-7 and MDA-MB-231 cells
eEF1A2 = target: T1, eEF1A2 (Homo sapiens, UniProt Q05639); type: binding; conditions: biotinylated compounds on SA chip; apparent KDs unreliable
T1 sequence (Q05639 1-463): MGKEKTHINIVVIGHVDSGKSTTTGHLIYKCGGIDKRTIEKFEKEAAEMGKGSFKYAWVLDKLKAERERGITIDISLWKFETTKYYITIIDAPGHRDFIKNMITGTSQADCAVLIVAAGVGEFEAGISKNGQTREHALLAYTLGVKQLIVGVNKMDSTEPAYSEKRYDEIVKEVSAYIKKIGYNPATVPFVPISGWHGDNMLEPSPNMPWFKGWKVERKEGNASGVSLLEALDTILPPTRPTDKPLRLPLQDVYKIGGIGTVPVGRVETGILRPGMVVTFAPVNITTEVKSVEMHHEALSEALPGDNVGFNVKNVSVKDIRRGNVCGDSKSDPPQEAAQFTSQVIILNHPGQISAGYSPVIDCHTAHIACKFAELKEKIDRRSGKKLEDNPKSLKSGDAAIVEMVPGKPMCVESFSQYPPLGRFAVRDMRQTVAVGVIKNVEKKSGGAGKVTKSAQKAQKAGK

protein translation = test: 35S-Methionine labeled protein translation assay; type: cell-based; conditions: 2, 4 and 8μM for 8 hours
[1] = test system: Akt (Ser473 and Thr308 phosphorylation); test: Western blot analysis of Akt phosphorylation in MDA-MB-231 cells; type: cell-based, human; conditions: MDA-MB-231, 2μM for 6 hours and 12 hours
MCF-7 cells = test: MTT assay, antiproliferative activity in MCF-7; type: cell-based, human; conditions: MCF-7, 10μM of each analogue for three days
eEF1A = type: binding, human; conditions: biotinylated compound, MDA-MB-231 cell lysate, neutravidin beads, western blot
[2] = test system: eukaryotic elongation factor 1A1 (eEF1A1); conditions: four rounds of biopanning, 12 phage clones per compound sequenced

Structure (SMILES)	decrease in IC50 compared to 10 (MDA-MB-231 cells; MDA-MB-231) [fold]	normal MCF10A cells killed (MCF10A cells; at 50μM)	binding of eEF1A2 (SPR) (eEF1A2)	35S-methionine incorporation into cellular proteins (protein translation)	phosphorylation of serine 473 and threonine 308 in Akt [1]	in vitro anticancer activity at single concentration (MDA-MB-231 cells)	in vitro anticancer activity at single concentration (MCF-7 cells)	killing of normal MCF10A cells (MCF10A cells)	binding of eEF1A in pull down (eEF1A)	binding protein recovered from phage clones [2]
CC(C)C[C@H](NC(=O)c1ccc(-c2cc(=O)c3cc([N+](=O)[O-])c(N[C@H](C)C4CCCCC4)cc3o2)cc1)C(N)=O [Compound 39]	5	about 65%	selectively bind to eEF1A2	decreased ^35S-methionine incorporation into cellular proteins in a dose-dependent manner	able to suppress phosphorylation	–	–	–	–	–
COc1ccc(Nc2nc3cc4c(=O)cc(-c5ccc(C(=O)N[C@@H](CC(C)C)C(N)=O)cc5)oc4cc3n2[C@H](C)C2CCCCC2)cc1 [Compound 10]	–	–	–	–	–	among the most active compounds	among the most active compounds	killed normal MCF10A cell in a similar manner as cancerous MCF-7 and MDA-MB-213 cells	eEF1A did indeed bind	two clones encoded eukaryotic elongation factor 1A1 (eEF1A1)
CC(C)CNc1nc2cc3c(=O)cc(-c4ccc(C(=O)N[C@@H](Cc5ccccc5)C(N)=O)cc4)oc3cc2n1Cc1ccccc1 [Compound 24]	–	–	–	–	–	among the most active compounds	among the most active compounds	killed normal MCF10A cell in a similar manner as cancerous MCF-7 and MDA-MB-213 cells	eEF1A did indeed bind	Eukaryotic elongation factor 1A 1 (eEF1A1) was also recovered
